How the values were obtained:
[1] = biological target: IRAK4 kinase (Homo sapiens (Human), UniProt Q9NWZ3); assay: IRAK4 kinase inhibitory activity assay (mobility shift assay, Km ATP); assay type: biochemical; settings: MSA, ATP 37 μM (Km ATP)
Experimental: The inhibitory activity (IC50) of the compound on IRAK4 kinase under Km ATP was detected by mobility shift assay (MSA). Ten drug concentration gradients were set (initial concentration 1 μM, 3-fold dilution, 2 duplicate wells per concentration). […] After incubation at 28° C. for a period of time, 10 μL of termination buffer was added to terminate the reaction. The conversion rate data was read with Caliper, and then the conversion rate was converted into inhibition rate data. According to the inhibition rate data of each concentration, the IC50 of half inhibitory concentration was calculated by Logit method (Table 3).

[2] = system: TNF-α secretion in THP-1 cells; assay: Inhibition of LPS-stimulated TNF-α secretion in THP-1 cells (ELISA); assay type: cell-based; settings: Homo sapiens, LPS 1 μg/mL, 4.5 hours
Experimental: TNF-α is a key cytokine involved in the inflammatory process of the listed autoimmune disease, such as rheumatoid arthritis, psoriatic arthritis, ankylosing spondylitis, psoriasis, Crohn's disease, ulcerative colitis, etc. In this test, TNF-α secretion was triggered by incubation with bacterial lipopolysaccharides (LPS). […] The 96-well plate was rotated at 2000 rpm for 5 minutes, and then 50 μL of supernatant was taken. The content of TNF-α in the supernatant was determined by human ELISA kit, and IC50 value of the compound was calculated by XL-Fit (table 4).

[3] = in vivo; settings: rat, po; for half-life: SD; for AUC(0-t) / Cmax / Tmax: 25 mg/kg
Experimental: SD rats were used as the test animals.
Standard curve and preparation and processing of quality control samples:
Stock solution was diluted with 50% acetonitrile-water to obtain standard working solutions of 0.04, 0.10, 0.20, 0.40, 1.00, 2.00, 4.00 μg/mL, and quality control working solutions of 0.10, 1.00, 3.00 μg/mL. […] 200 μL of acetonitrile (containing 5 ng/mL of the internal standard loratadine) was added. After the vortex oscillation for 3 minutes, the solutions were centrifuged at 15000 rpm at 4° C. for 15 minutes. 100 μL of the supernatant was taken for LC-MS/MS analysis. WinNonlin ® 8.0 was used to calculate the experimental results.

[4] = in vivo; settings: ICR, mouse, po
Experimental: On the day of administration, observations were made approximately 0.5, 1, 2, 4, and 6 hours after the first administration. During day 2 to day 6 of the observation period, observations were made twice a day, once in the morning and once in the afternoon.
Observations included but not limited to: general conditions, behavioral activities, gait and posture, eyes, mouth, nose, gastrointestinal tract, skin hair and urogenital tract.
Weight data were expressed as mean ±standard deviation. Levene's test and one-way analysis of variance were used for comparison between groups. If there was a difference, Dunnet t test was then used.
The maximum tolerated dose refers to the dose administered when the animal was dying.

[5] = biological target: hERG potassium channel (Homo sapiens (Human), UniProt Q12809); assay: cell-based; settings: for Inhibition rate (%) of hERG current: human
From the text: The rapid activation of delayed rectifier outward potassium current (IKr) in humans is mainly mediated by hERG ion channel and participates in human myocardial cell repolarization. Drug blockade of this current will lead to the appearance of QT interval prolongation syndrome in clinical practice, which can easily induce acute arrhythmia and even sudden death.

Sequence of IRAK4 kinase (Q9NWZ3 whole entry): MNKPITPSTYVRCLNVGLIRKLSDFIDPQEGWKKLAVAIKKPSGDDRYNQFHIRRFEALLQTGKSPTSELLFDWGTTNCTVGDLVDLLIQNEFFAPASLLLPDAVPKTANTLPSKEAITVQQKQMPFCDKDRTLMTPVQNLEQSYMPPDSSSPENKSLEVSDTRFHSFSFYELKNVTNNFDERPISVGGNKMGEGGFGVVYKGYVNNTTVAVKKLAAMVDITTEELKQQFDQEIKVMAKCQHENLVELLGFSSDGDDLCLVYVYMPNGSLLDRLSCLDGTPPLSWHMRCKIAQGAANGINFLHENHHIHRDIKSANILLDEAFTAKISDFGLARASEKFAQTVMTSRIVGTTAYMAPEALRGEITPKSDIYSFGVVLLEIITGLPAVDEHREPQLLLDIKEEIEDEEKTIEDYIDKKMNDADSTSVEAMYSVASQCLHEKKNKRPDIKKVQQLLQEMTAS
Sequence of hERG potassium channel (Q12809 whole entry): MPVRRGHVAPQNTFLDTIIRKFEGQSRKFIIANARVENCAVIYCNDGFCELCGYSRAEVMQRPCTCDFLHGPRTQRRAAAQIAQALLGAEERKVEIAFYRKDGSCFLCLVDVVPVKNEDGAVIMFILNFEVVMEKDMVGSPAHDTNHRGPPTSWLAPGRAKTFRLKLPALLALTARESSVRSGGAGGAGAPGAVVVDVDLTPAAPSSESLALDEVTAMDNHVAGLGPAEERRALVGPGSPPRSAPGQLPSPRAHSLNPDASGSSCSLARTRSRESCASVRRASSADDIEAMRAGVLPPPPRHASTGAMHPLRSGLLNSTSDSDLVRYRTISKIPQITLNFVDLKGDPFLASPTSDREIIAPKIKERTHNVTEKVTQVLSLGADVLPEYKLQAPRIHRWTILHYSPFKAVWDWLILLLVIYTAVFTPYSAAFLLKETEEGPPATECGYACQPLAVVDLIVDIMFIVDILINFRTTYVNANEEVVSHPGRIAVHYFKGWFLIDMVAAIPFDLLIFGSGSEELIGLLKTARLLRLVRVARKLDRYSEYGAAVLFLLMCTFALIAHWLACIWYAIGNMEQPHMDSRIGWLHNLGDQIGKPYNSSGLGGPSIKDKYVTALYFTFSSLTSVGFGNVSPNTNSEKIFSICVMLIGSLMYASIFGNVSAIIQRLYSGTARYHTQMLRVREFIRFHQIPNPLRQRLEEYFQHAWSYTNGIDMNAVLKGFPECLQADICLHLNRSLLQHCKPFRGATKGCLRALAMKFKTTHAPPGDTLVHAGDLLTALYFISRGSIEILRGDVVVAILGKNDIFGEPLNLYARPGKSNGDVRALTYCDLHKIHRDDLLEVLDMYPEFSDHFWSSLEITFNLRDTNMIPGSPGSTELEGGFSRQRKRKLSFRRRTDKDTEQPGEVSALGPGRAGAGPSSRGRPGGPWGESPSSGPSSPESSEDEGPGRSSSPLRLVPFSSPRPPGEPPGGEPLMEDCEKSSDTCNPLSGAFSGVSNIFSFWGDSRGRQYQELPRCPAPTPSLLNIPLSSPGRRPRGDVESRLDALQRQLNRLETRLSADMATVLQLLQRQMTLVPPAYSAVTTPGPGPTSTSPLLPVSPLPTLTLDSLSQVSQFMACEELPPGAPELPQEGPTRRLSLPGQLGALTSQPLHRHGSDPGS

COc1cc2nn(CCS(=N)(=O)c3ncccn3)cc2cc1NC(=O)c1cccc(C(F)(F)F)n1 (stereo not drawn) [Compound I-31]
IC50 [1]: 0.6 nM
IC50 [2]: 1.3 nM
half-life ([3]; in vivo): 4.5 h
AUC(0-t) ([3]; plasma): 7980 ng·h/mL
Cmax ([3]; plasma): 1300 ng/mL
Tmax ([3]; plasma): 4.8 h
MTD at 6 days [4]: > 2000 mg/kg
Inhibition rate (%) of hERG current ([5]; 5 μM): 1.7%
Inhibition rate (%) of hERG current ([5]; 50 μM): -0.2%
Inhibition rate (%) of hERG current ([5]; 500 μM): 6.7%

COc1cc2nn(CCS(=N)(=O)c3ccncc3)cc2cc1NC(=O)c1cnn2cccnc12 (stereo not drawn) [Compound I-21]
IC50 [1]: 0.5 nM
IC50 [2]: 0.9 nM
half-life ([3]; in vivo): 5.2 h
AUC(0-t) ([3]; plasma): 9400 ng·h/mL
Cmax ([3]; plasma): 1520 ng/mL
Tmax ([3]; plasma): 5.8 h
MTD at 6 days [4]: > 2000 mg/kg
Inhibition rate (%) of hERG current ([5]; 5 μM): 2.3%
Inhibition rate (%) of hERG current ([5]; 50 μM): 2.1%
Inhibition rate (%) of hERG current ([5]; 500 μM): 29.7%

CC(C)(O)c1cc2nn(CCS(=N)(=O)c3ccncc3)cc2cc1NC(=O)c1cccc(C(F)(F)F)n1 (stereo not drawn) [Compound I-6]
IC50 [1]: 0.2 nM
IC50 [2]: 0.6 nM

CN=S(=O)(CCn1cc2cc(NC(=O)c3cccc(C(F)(F)F)n3)c(OC)cc2n1)c1ccccc1 (stereo not drawn) [Compound I-25]
IC50 [1]: 0.5 nM
IC50 [2]: 1.2 nM

N=S(=O)(CCn1cc2cc(NC(=O)c3cccc(C(F)(F)F)n3)c(N3CCC(O)C3)cc2n1)c1ccnc2ccccc12 (stereo not drawn) [Compound I-12]
IC50 [1]: 0.3 nM
IC50 [2]: 0.6 nM

Cc1cc(-c2nc(C(=O)Nc3cc4cn(CCS(=N)(=O)c5ccccn5)nc4cc3N3CCC(O)C3)co2)ccn1 (stereo not drawn) [Compound I-20]
IC50 [1]: 0.6 nM
IC50 [2]: 1.1 nM
half-life ([3]; in vivo): 4.5 h
AUC(0-t) ([3]; plasma): 7500 ng·h/mL
Cmax ([3]; plasma): 1400 ng/mL
Tmax ([3]; plasma): 4.9 h

COc1cc2nn(CCS(=N)(=O)c3ccncc3)cc2cc1NC(=O)c1coc(-c2ccnc(C)c2)n1 (stereo not drawn) [Compound I-15]
IC50 [1]: 0.7 nM
IC50 [2]: 0.9 nM
half-life ([3]; in vivo): 6 h
AUC(0-t) ([3]; plasma): 8230 ng·h/mL
Cmax ([3]; plasma): 1380 ng/mL
Tmax ([3]; plasma): 5.9 h

N=S(=O)(CCn1cc2cc(NC(=O)c3cnn4cccnc34)c(N3CCC(O)C3)cc2n1)c1ccccn1 (stereo not drawn) [Compound I-24]
IC50 [1]: 0.8 nM
IC50 [2]: 0.8 nM
half-life ([3]; in vivo): 5.5 h
AUC(0-t) ([3]; plasma): 8900 ng·h/mL
Cmax ([3]; plasma): 1420 ng/mL
Tmax ([3]; plasma): 6.2 h
MTD at 6 days [4]: > 2000 mg/kg

N=S(=O)(CCn1cc2cc(NC(=O)c3cnn4cccnc34)c(N3CCOCC3)cc2n1)c1ncccn1 (stereo not drawn) [Compound I-33]
IC50 [1]: 0.4 nM
IC50 [2]: 1.4 nM

CC(C)(O)c1cc2nn(CCS(C)(=O)=O)cc2cc1NC(=O)c1cccc(C(F)(F)F)n1 [BAY-1834845, reference compound]
Cmax ([3]; in vivo): 201 ng/mL

COc1cc2nn(CCS(=N)(=O)c3nccs3)cc2cc1NC(=O)c1cccc(C(F)(F)F)n1 (stereo not drawn) [Compound I-35]
IC50 [1]: 0.7 nM
IC50 [2]: 0.7 nM

N=S(=O)(CCn1cc2cc(NC(=O)c3cnn4cccnc34)c(N3CCOCC3)cc2n1)c1ccnc2ccccc12 (stereo not drawn) [Compound I-23]
IC50 [1]: 0.4 nM
IC50 [2]: 1.1 nM

COc1cc2nn(CCS(=N)(=O)c3ccccn3)cc2cc1NC(=O)c1cccc(C(F)(F)F)n1 (stereo not drawn) [Compound I-19]
IC50 [1]: 0.8 nM
IC50 [2]: 0.9 nM

CC(C)(O)c1cc2nn(CCS(=N)(=O)c3ncnc4ccccc34)cc2cc1NC(=O)c1cccc(C(F)(F)F)n1 (stereo not drawn) [Compound I-34]
IC50 [1]: 0.5 nM
IC50 [2]: 0.5 nM
half-life ([3]; in vivo): 5.3 h
AUC(0-t) ([3]; plasma): 8000 ng·h/mL
Cmax ([3]; plasma): 1630 ng/mL
Tmax ([3]; plasma): 5.5 h
MTD at 6 days [4]: > 2000 mg/kg
Inhibition rate (%) of hERG current ([5]; 5 μM): -1.6%
Inhibition rate (%) of hERG current ([5]; 50 μM): 1.0%
Inhibition rate (%) of hERG current ([5]; 500 μM): 11.5%

CC(C)(O)CCn1cc2cc(NC(=O)c3cccc(C(F)(F)F)n3)c(C(C)(C)O)cc2n1 [BAY-1830839, reference compound]
Cmax ([3]; in vivo): 223 ng/mL

CC(C)(O)c1cc2nn(CCS(C)(=N)=O)cc2cc1NC(=O)c1cccc(C(F)(F)F)n1 (stereo not drawn) [MY-004-102, reference compound]
IC50 [2]: 169 nM
half-life ([3]; in vivo): 1.4 h
AUC(0-t) ([3]; plasma): 700 ng·h/mL
Cmax ([3]; plasma): 235 ng/mL
Tmax ([3]; plasma): 1.3 h
MTD at 6 days [4]: 750 mg/kg
IC50 [5]: ~50000 nM

COc1cc2nn(CCS(C)(=N)=O)cc2cc1NC(=O)c1cccc(C(F)(F)F)n1 (stereo not drawn) [MY-004-103, reference compound]
IC50 [2]: 125 nM
half-life ([3]; in vivo): 1.4 h
AUC(0-t) ([3]; plasma): 734 ng·h/mL
Cmax ([3]; plasma): 245 ng/mL
Tmax ([3]; plasma): 1.4 h

COc1cc2nn(CCS(=N)(=O)c3ccc(F)cc3)cc2cc1NC(=O)c1cccc(C(F)(F)F)n1 (stereo not drawn) [Compound I-27]
IC50 [1]: 0.7 nM
IC50 [2]: 1.3 nM

Cc1cc2nn(CCS(=N)(=O)c3ccccc3)cc2cc1NC(=O)c1cccc(C(F)(F)F)n1 (stereo not drawn) [Compound I-13]
IC50 [1]: 0.4 nM
IC50 [2]: 1.1 nM

N=S(=O)(CCn1cc2cc(NC(=O)c3cccc(C(F)(F)F)n3)c(N3CCC(O)C3)cc2n1)c1ccncc1 (stereo not drawn) [Compound I-8]
IC50 [1]: 0.6 nM
IC50 [2]: 0.9 nM

CC(C)(O)c1cc2nn(CCS(=N)(=O)c3ccccc3)cc2cc1NC(=O)c1cnn2cccnc12 (stereo not drawn) [Compound I-22]
IC50 [1]: 0.3 nM
IC50 [2]: 0.8 nM

Cc1cc(-c2nc(C(=O)Nc3cc4cn(CCS(=N)(=O)c5ncccn5)nc4cc3C(C)(C)O)co2)ccn1 (stereo not drawn) [Compound I-32]
IC50 [1]: 0.5 nM
IC50 [2]: 1 nM

Cc1cc(-c2nc(C(=O)Nc3cc4cn(CCS(=N)(=O)c5ccncc5)nc4cc3N3CCOCC3)co2)ccn1 (stereo not drawn) [Compound I-17]
IC50 [1]: 0.5 nM
IC50 [2]: 1.2 nM
half-life ([3]; in vivo): 5.4 h
AUC(0-t) ([3]; plasma): 8200 ng·h/mL
Cmax ([3]; plasma): 1430 ng/mL
Tmax ([3]; plasma): 5.8 h

Cc1cc(-c2nc(C(=O)Nc3cc4cn(CCS(=N)(=O)c5ccncc5)nc4cc3C(C)(C)O)co2)ccn1 (stereo not drawn) [Compound I-16]
IC50 [1]: 0.5 nM
IC50 [2]: 0.9 nM
half-life ([3]; in vivo): 6.3 h
AUC(0-t) ([3]; plasma): 9230 ng·h/mL
Cmax ([3]; plasma): 1360 ng/mL
Tmax ([3]; plasma): 6 h
MTD at 6 days [4]: > 2000 mg/kg

COc1cc2nn(CCS(=N)(=O)c3ncco3)cc2cc1NC(=O)c1cccc(C(F)(F)F)n1 (stereo not drawn) [Compound I-36]
IC50 [1]: 0.5 nM
IC50 [2]: 1.5 nM
half-life ([3]; in vivo): 5.4 h
AUC(0-t) ([3]; plasma): 8490 ng·h/mL
Cmax ([3]; plasma): 1490 ng/mL
Tmax ([3]; plasma): 5.6 h

Cc1cc(-c2nc(C(=O)Nc3cc4cn(CCS(=N)(=O)c5ccccc5)nc4cc3N3CCOCC3)co2)ccn1 (stereo not drawn) [Compound I-30]
IC50 [1]: 0.6 nM
IC50 [2]: 0.9 nM

N=S(=O)(CCn1cc2cc(NC(=O)c3cccc(C(F)(F)F)n3)c(N3CCOCC3)cc2n1)c1ccnc2ccccc12 (stereo not drawn) [Compound I-11]
IC50 [1]: 0.5 nM
IC50 [2]: 0.8 nM

N=S(=O)(CCn1cc2cc(NC(=O)c3cccc(C(F)(F)F)n3)c(N3CCOCC3)cc2n1)c1ccccc1 (stereo not drawn) [Compound I-3]
IC50 [1]: 0.6 nM
IC50 [2]: 0.6 nM

Cc1cc(-c2nc(C(=O)Nc3cc4cn(CCS(=N)(=O)c5ccncc5)nc4cc3N3CCC(O)C3)co2)ccn1 (stereo not drawn) [Compound I-18]
IC50 [1]: 0.4 nM
IC50 [2]: 1.4 nM

N=S(=O)(CCn1cc2cc(NC(=O)c3cccc(C(F)(F)F)n3)c(N3CCC(O)C3)cc2n1)c1ccccc1 (stereo not drawn) [Compound I-4]
IC50 [1]: 0.3 nM
IC50 [2]: 1.3 nM
half-life ([3]; in vivo): 4.7 h
AUC(0-t) ([3]; plasma): 8530 ng·h/mL
Cmax ([3]; plasma): 1500 ng/mL
Tmax ([3]; plasma): 6 h

COc1cc2nn(CCS(=N)(=O)c3ccnc4ccccc34)cc2cc1NC(=O)c1cccc(C(F)(F)F)n1 (stereo not drawn) [Compound I-9]
IC50 [1]: 0.2 nM
IC50 [2]: 1 nM
half-life ([3]; in vivo): 4.8 h
AUC(0-t) ([3]; plasma): 8520 ng·h/mL
Cmax ([3]; plasma): 1420 ng/mL
Tmax ([3]; plasma): 5.5 h

COc1cc2nn(CCS(=N)(=O)c3ccccc3)cc2cc1NC(=O)c1coc(-c2ccnc(C)c2)n1 (stereo not drawn) [Compound I-28]
IC50 [1]: 0.7 nM
IC50 [2]: 0.7 nM

N=S(=O)(CCn1cc2cc(NC(=O)c3cccc(C(F)(F)F)n3)c(N3CCOCC3)cc2n1)c1ccncc1 (stereo not drawn) [Compound I-7]
IC50 [1]: 0.5 nM
IC50 [2]: 1.2 nM
half-life ([3]; in vivo): 5 h
AUC(0-t) ([3]; plasma): 8630 ng·h/mL
Cmax ([3]; plasma): 1500 ng/mL
Tmax ([3]; plasma): 5 h
MTD at 6 days [4]: > 2000 mg/kg

— patent US20240132473A1, “SULFOXIMIDE SUBSTITUTED INDAZOLE IRAK4 KINASE INHIBITOR, PREPARATION METHOD THEREOF AND USE THEREOF” (Shanghai Xunhe Pharmaceutical Technology Co. Ltd., priority 2021, published 2024)
